Activity calls are given as the source filed them. How the calls were made is not given here.
System: M. tuberculosis H37Rv growth inhibition with meropenem
Assay: dose response, H37Rv, with and without meropenem (AID 434987);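 further: growth over 7 days at 37 °C before Alamar Blue read on day 9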
[1] = M. tuberculosis H37Rv growth inhibition, measured here: IC50 without meropenem
[2] = M. tuberculosis H37Rv growth inhibition, measured here: IC90 without meropenem
[3] = measured here: IC90 with meropenem

In the case of `Cc1ccc(NC(=O)CSc2n[nH]c(-c3ccco3)n2)cc1`, the IC50 is reported as > 100 µM (inactive), the IC50 [1] is reported as greater than 100 µM and the IC90 [2] is reported as greater than 100 µM. For the same compound, the IC90 [3] was greater than 100 µM.
For `O=C(NCc1cccs1)c1cc(-c2ccccc2)nc2ccccc12`, the IC50 was > 100 µM (inactive), the IC50 [1] was greater than 100 µM and the IC90 [2] was greater than 100 µM. For the same compound, the IC90 [3] was greater than 100 µM.
With `CC(=O)Nc1ccc(Nc2ncc([N+](=O)[O-])c(Nc3ccc(NC(C)=O)cc3)n2)cc1` the IC50 was 0.423 µM, the IC50 [1] was 2.43 µM and the IC90 [2] was greater than 100 µM. The IC90 [3] was 45.5 µM.
`COc1cc(C(=S)N2CCOCC2)ccc1OC(=O)c1ccc([N+](=O)[O-])cc1[N+](=O)[O-]` was tested, and the IC50 was 3.24 µM (inactive), the IC50 [1] was 6.01 µM and the IC90 [2] was 7.13 µM. It also gave an IC90 [3] of 5.92 µM.
With `COc1cc(/C=C/C(=O)NC(C)(C)C)ccc1OCc1ccccc1` the IC50 was > 100 µM (inactive), the IC50 [1] was greater than 100 µM and the IC90 [2] was greater than 100 µM. The IC90 [3] was greater than 100 µM.
`CC(=O)c1ccc(N2CCN(c3ncc(C(F)(F)F)cc3Cl)CC2)cc1` was tested, and the IC50 was > 100 µM (inactive), the IC50 [1] was greater than 100 µM and the IC90 [2] was greater than 100 µM. It also gave an IC90 [3] greater than 100 µM.
Work on `O=C1c2ccccc2N2C(=O)c3ccccc3C2N1O` (stereo unspecified) yielded an IC50 of 13.9 µM, an IC50 [1] of 39.3 µM and an IC90 [2] greater than 100 µM. For the same compound, the IC90 [3] was 56.4 µM.
For `CCc1cc2c(=O)nc3n(c2s1)Cc1ccccc1/C3=C(/O)c1ccc(F)cc1`, the IC50 was > 100 µM (inactive), the IC50 [1] was greater than 100 µM and the IC90 [2] was greater than 100 µM. For the same compound, the IC90 [3] was greater than 100 µM.
In the case of `O=C(COC(=O)c1ccc([N+](=O)[O-])s1)NCc1ccccc1`, the IC50 is reported as 18.3 µM (inactive), the IC50 [1] is reported as 34.8 µM and the IC90 [2] is reported as greater than 100 µM. The IC90 [3] was 39.4 µM.
`N#Cc1ccc(NCC(=O)Nc2ccc(S(=O)(=O)N3CCCCC3)cc2)cc1` was tested, and the IC50 was > 100 µM (inactive), the IC50 [1] was greater than 100 µM and the IC90 [2] was greater than 100 µM. The IC90 [3] was greater than 100 µM.
In the case of `Cc1ccc(Cn2c(C(C)Nc3nc(-c4ccc(Cl)cc4)cs3)nc3cc(C(=O)NCCCO)ccc32)cc1` (stereo unspecified), the IC50 is reported as 73.5 µM (inactive), the IC50 [1] is reported as 67.3 µM and the IC90 [2] is reported as 86.4 µM. The IC90 [3] was greater than 100 µM.
`Nc1c(C(=O)N2CCCC2)sc2nc3c(cc12)CCCCCC3` was tested, and the IC50 was 19.4 µM, the IC50 [1] was 92.2 µM and the IC90 [2] was greater than 100 µM. For the same compound, the IC90 [3] was greater than 100 µM.
In the case of `Cc1ccccc1OCC(=O)Nc1ccccc1-c1ccccc1`, the IC50 is reported as 6.04 µM, the IC50 [1] is reported as greater than 100 µM and the IC90 [2] is reported as greater than 100 µM. The IC90 [3] was greater than 100 µM.
For `COc1ccc2oc(=N)c(C(=O)Nc3ccccc3)cc2c1`, the IC50 was > 100 µM (inactive), the IC50 [1] was greater than 100 µM and the IC90 [2] was greater than 100 µM. The IC90 [3] was greater than 100 µM.
With `CC(C)=CCC/C(C)=C/C=N/NC(=O)c1ccc([N+](=O)[O-])cc1` the IC50 was 1.02 µM, the IC50 [1] was 49 µM and the IC90 [2] was greater than 100 µM. For the same compound, the IC90 [3] was greater than 100 µM.
In the case of `O=C(COc1ccccc1[N+](=O)[O-])N(Cc1cccc(Br)c1)C1CCS(=O)(=O)C1` (stereo unspecified), the IC50 is reported as > 100 µM (inactive), the IC50 [1] is reported as greater than 100 µM and the IC90 [2] is reported as greater than 100 µM. The IC90 [3] was greater than 100 µM.
`C=CCSc1nnc2c(n1)OC(c1c(C)[nH]n(-c3ccccc3)c1=O)Nc1ccccc1-2` (stereo unspecified) showed an IC50 of 28 µM, an IC50 [1] greater than 100 µM and an IC90 [2] greater than 100 µM. It also gave an IC90 [3] greater than 100 µM.
With `CCOC(=O)COc1ccc2nsnc2c1` the IC50 was 23.5 µM (inactive), the IC50 [1] was 27 µM and the IC90 [2] was greater than 100 µM. For the same compound, the IC90 [3] was 26 µM.
With `CN(C(=O)Nc1ccc(Cl)cc1)n1cnc2ccccc2c1=O` the IC50 was 44.9 µM (inactive), the IC50 [1] was 95.9 µM and the IC90 [2] was greater than 100 µM. The IC90 [3] was 48.6 µM.
`COC(=O)c1cnn(-c2ccccc2)c1/C=N/NC(=S)Nc1ccc(Cl)cc1` gave an IC50 of 33.1 µM, an IC50 [1] greater than 100 µM and an IC90 [2] greater than 100 µM. The IC90 [3] was greater than 100 µM.
For `COc1nc(-c2ccccc2)ccc1-c1noc(-c2cccnc2)n1`, the IC50 was > 100 µM (inactive), the IC50 [1] was greater than 100 µM and the IC90 [2] was greater than 100 µM. It also gave an IC90 [3] greater than 100 µM.
In the case of `COc1ccc(Cl)cc1NC(=O)C/C(C)=N/NC(=O)CC#N`, the IC50 is reported as 7.99 µM, the IC50 [1] is reported as greater than 100 µM and the IC90 [2] is reported as greater than 100 µM. The IC90 [3] was greater than 100 µM.
For `CCOC(=O)c1c(C)[nH]c(C(=O)COC(=O)CCC2CCCC2)c1C`, the IC50 was > 100 µM (inactive), the IC50 [1] was greater than 100 µM and the IC90 [2] was greater than 100 µM. It also gave an IC90 [3] greater than 100 µM.
With `Nc1cc(=O)nc(SCc2ccccc2)n1Cc1ccco1` the IC50 was 87.3 µM (inactive), the IC50 [1] was greater than 100 µM and the IC90 [2] was greater than 100 µM. For the same compound, the IC90 [3] was greater than 100 µM.
With `CC/C(=N\NC(=S)NC(C)C)c1ccc(OC)c(OC)c1` the IC50 was 12.9 µM (inactive), the IC50 [1] was 20.2 µM and the IC90 [2] was 24.7 µM. For the same compound, the IC90 [3] was 15.5 µM.
For `Cc1ccc(C(=O)Nc2ccc(N3CCN(C(=O)c4cccs4)CC3)cc2)c(Cl)c1`, the IC50 was > 100 µM (inactive), the IC50 [1] was greater than 100 µM and the IC90 [2] was greater than 100 µM. It also gave an IC90 [3] greater than 100 µM.
In the case of `CCCOc1ccc(C2Nc3cccc4cccc(c34)N2)cc1`, the IC50 is reported as > 100 µM (inactive), the IC50 [1] is reported as greater than 100 µM and the IC90 [2] is reported as greater than 100 µM. It also gave an IC90 [3] greater than 100 µM.
For `CCc1sc2nc(SCC(=O)Nc3cc(C)on3)n(-c3cccc(OC)c3)c(=O)c2c1C`, the IC50 was > 100 µM (inactive), the IC50 [1] was greater than 100 µM and the IC90 [2] was greater than 100 µM. The IC90 [3] was greater than 100 µM.
`Cc1ccc(-n2ncc(-c3nnc(SCC(=O)NC4CCCC4)o3)c2N)cc1C` was tested, and the IC50 was > 100 µM (inactive), the IC50 [1] was greater than 100 µM and the IC90 [2] was greater than 100 µM. The IC90 [3] was greater than 100 µM.

Reference: PubChem BioAssay AID434987 (Southern Research Specialized Biocontainment Screening …, 2010)
